Assay results as given in publication PMC11151825 (RSC Chemical Biology, 2024).
Like-named read-outs stand apart in the source and are kept apart here. Square brackets hold non-standard residues; d marks the D form. Peptide text beside a SMILES is read from it. Abu = CC[C@H](N)C(=O)O

How the values were obtained:
[1] = the molecule shown is the open-chain precursor, 3 steps
human C5aR1 = human C5aR1 (Homo sapiens, UniProt P21730); experiment: cell-based; conditions: SEM
[2] = the molecule shown is the open-chain precursor
[3] = the molecule shown is the open-chain precursor; remark: listed apart in the source

Chain of human C5aR1 (P21730 whole entry): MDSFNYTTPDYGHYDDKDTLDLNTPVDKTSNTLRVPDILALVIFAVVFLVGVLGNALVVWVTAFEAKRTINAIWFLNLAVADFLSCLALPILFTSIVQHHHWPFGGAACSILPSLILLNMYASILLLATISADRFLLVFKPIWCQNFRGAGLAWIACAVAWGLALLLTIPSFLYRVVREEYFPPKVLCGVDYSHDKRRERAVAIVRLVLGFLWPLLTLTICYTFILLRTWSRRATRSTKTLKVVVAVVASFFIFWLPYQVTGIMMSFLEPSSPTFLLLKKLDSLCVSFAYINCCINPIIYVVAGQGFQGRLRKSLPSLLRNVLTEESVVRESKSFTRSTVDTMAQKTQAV

Molecule | ring closure, conversion by HPLC (% (HPLC peak area)) [2] | ring closure, conversion by HPLC (% (HPLC peak area)) [3] | also measured
CC(C)CC(NCCCC[C@@H]1NC(=O)[C@@H](Cc2c[nH]c3ccccc23)NC(=O)[C@H](Cc2ccccc2)NC(=O)[C@@H](NC(=O)[C@H](N)Cc2ccccc2)CSSC[C@@H](C(=O)N[C@H](C(=O)N[C@H](C(=O)N[C@H]2CSSC[C@@H]3NC(=O)CNC(=O)[C@@H]4CCCN4C(=O)[C@H]([C@@H](C)O)NC(=O)[C@H](CC(N)=O)NC(=O)[C@@H]4CSSC[C@@H](C(=O)N[C@H](C(=O)O)[C@@H](C)O)NC(=O)[C@H](C(C)C)NC(=O)[C@@H]5CCCN5C(=O)[C@H](Cc5c[nH]c6ccccc56)NC(=O)[C@H](CO)NC(=O)[C@H](CSSC[C@H](NC(=O)[C@H]([C@@H](C)O)NC(=O)[C@H](CCC(N)=O)NC(=O)CNC2=O)C(=O)N[C@@H](C(C)C)C(=O)NCC(=O)NCC(=O)N[C@@H]([C@@H](C)O)C(=O)N4)NC(=O)[C@H]([C@@H](C)O)NC3=O)C(C)C)[C@@H](C)O)NC(=O)[C@H]([C@@H](C)O)NC1=O)=C1C(=O)CC(C)(C)CC1=O |  |  | ring closure, yield over several steps ([1]; 96-membered ring): 16.1%
CC(C)CC(NCCCC[C@H](NC(=O)[C@@H](N)Cc1ccccc1)C(=O)N1CCC[C@H]1C(=O)N[C@@H](CC(C)C)C(=O)N[C@@H](C)C(=O)N[C@@H](C)C(=O)N[C@H](C)C(=O)N[C@@H](CCCNC(=N)N)C(=O)N[C@H](C(=O)N[C@H]1CSSC[C@@H]2NC(=O)CNC(=O)[C@@H]3CCCN3C(=O)[C@H]([C@@H](C)O)NC(=O)[C@H](CC(N)=O)NC(=O)[C@@H]3CSSC[C@@H](C(=O)N[C@H](C(=O)O)[C@@H](C)O)NC(=O)[C@H](C(C)C)NC(=O)[C@@H]4CCCN4C(=O)[C@H](Cc4c[nH]c5ccccc45)NC(=O)[C@H](CO)NC(=O)[C@H](CSSC[C@H](NC(=O)[C@H]([C@@H](C)O)NC(=O)[C@H](CCC(N)=O)NC(=O)CNC1=O)C(=O)N[C@@H](C(C)C)C(=O)NCC(=O)NCC(=O)N[C@@H]([C@@H](C)O)C(=O)N3)NC(=O)[C@H]([C@@H](C)O)NC2=O)C(C)C)=C1C(=O)CC(C)(C)CC1=O |  |  | ring closure, yield over several steps ([1]; 96-membered ring): 22%
CC[C@H](C)[C@@H]1NC(=O)[C@@H]2CCCN2C(=O)[C@@H]2CCCN2C(=O)[C@H]([C@@H](C)CC)NC(=O)[C@H](CO)NC(=O)[C@H](CCCCNC(CC(C)C)=C2C(=O)CC(C)(C)CC2=O)NC(=O)[C@H]([C@@H](C)O)NC(=O)[C@@H](NC(=O)CN)CSSC[C@@H](C(=O)NCC(=O)N[C@H](C(=O)N[C@H]2CSSC[C@@H]3NC(=O)CNC(=O)[C@@H]4CCCN4C(=O)[C@H]([C@@H](C)O)NC(=O)[C@H](CC(N)=O)NC(=O)[C@@H]4CSSC[C@@H](C(=O)N[C@H](C(=O)O)[C@@H](C)O)NC(=O)[C@H](C(C)C)NC(=O)[C@@H]5CCCN5C(=O)[C@H](Cc5c[nH]c6ccccc56)NC(=O)[C@H](CO)NC(=O)[C@H](CSSC[C@H](NC(=O)[C@H]([C@@H](C)O)NC(=O)[C@H](CCC(N)=O)NC(=O)CNC2=O)C(=O)N[C@@H](C(C)C)C(=O)NCC(=O)NCC(=O)N[C@@H]([C@@H](C)O)C(=O)N4)NC(=O)[C@H]([C@@H](C)O)NC3=O)C(C)C)NC1=O |  |  | ring closure, yield over several steps ([1]; 105-membered ring): 18.7%
CC[C@H](C)[C@H](NC(=O)[C@H](CCCNC(=N)N)NC(=O)[C@H](CCCNC(=N)N)NC(=O)[C@H](CC(C)C)NC(=O)[C@H](Cc1ccccc1)NC(=O)CNC(=O)CNC(=O)[C@@H](N)Cc1ccc(O)cc1)C(=O)N[C@@H](CCCNC(=N)N)C(=O)N1CCC[C@H]1C(=O)N[C@@H](CCCCNC(CC(C)C)=C1C(=O)CC(C)(C)CC1=O)C(=O)N[C@@H](CC(C)C)C(=O)N[C@@H](CCCCNC(CC(C)C)=C1C(=O)CC(C)(C)CC1=O)C(=O)NCC(=O)N[C@H]1CSSC[C@@H]2NC(=O)[C@H](C(C)C)NC(=O)[C@@H]3CCCN3C(=O)[C@H](CC(C)C)NC(=O)CNC(=O)[C@H](CC(N)=O)NC(=O)[C@H](CCCNC(=N)N)NC(=O)[C@H]([C@@H](C)O)NC(=O)[C@@H]3CSSC[C@@H](C(=O)N[C@@H](CC(N)=O)C(=O)O)NC(=O)[C@H]([C@@H](C)O)NC(=O)CNC(=O)CNC(=O)[C@H](C(C)C)NC(=O)[C@H](CSSC[C@H](NC(=O)[C@H]([C@@H](C)O)NC1=O)C(=O)N[C@@H](CO)C(=O)N[C@@H](Cc1c[nH]c4ccccc14)C(=O)N1CCC[C@H]1C(=O)N[C@@H](C(C)C)C(=O)N3)NC(=O)[C@H]([C@@H](C)O)NC(=O)[C@H](CCC(N)=O)NC(=O)CNC2=O |  |  | ring closure, yield over several steps ([1]; 120-membered ring): 11.2%
CC[C@H](C)[C@H](NC(=O)[C@H](CCCNC(=N)N)NC(=O)[C@H](CCCNC(=N)N)NC(=O)[C@H](CC(C)C)NC(=O)[C@H](Cc1ccccc1)NC(=O)CNC(=O)CNC(=O)[C@@H](N)Cc1ccc(O)cc1)C(=O)N[C@@H](CCCNC(=N)N)C(=O)N1CCC[C@H]1C(=O)N[C@@H](CCCCNC(CC(C)C)=C1C(=O)CC(C)(C)CC1=O)C(=O)N[C@@H](CC(C)C)C(=O)N[C@@H](CCCCNC(CC(C)C)=C1C(=O)CC(C)(C)CC1=O)C(=O)N[C@H](C(=O)N[C@H]1CSSC[C@@H]2NC(=O)CNC(=O)[C@@H]3CCCN3C(=O)[C@H]([C@@H](C)O)NC(=O)[C@H](CC(N)=O)NC(=O)[C@@H]3CSSC[C@@H](C(=O)N[C@H](C(=O)O)[C@@H](C)O)NC(=O)[C@H](C(C)C)NC(=O)[C@@H]4CCCN4C(=O)[C@H](Cc4c[nH]c5ccccc45)NC(=O)[C@H](CO)NC(=O)[C@H](CSSC[C@H](NC(=O)[C@H]([C@@H](C)O)NC(=O)[C@H](CCC(N)=O)NC(=O)CNC1=O)C(=O)N[C@@H](C(C)C)C(=O)NCC(=O)NCC(=O)N[C@@H]([C@@H](C)O)C(=O)N3)NC(=O)[C@H]([C@@H](C)O)NC2=O)C(C)C |  |  | ring closure, yield over several steps ([1]; 111-membered ring): 17.4%
CC[C@H](C)[C@H](NC(=O)[C@H](CCCNC(=N)N)NC(=O)[C@H](CCCNC(=N)N)NC(=O)[C@H](CC(C)C)NC(=O)[C@H](Cc1ccccc1)NC(=O)CNC(=O)CNC(=O)[C@@H](N)Cc1ccc(O)cc1)C(=O)N[C@@H](CCCNC(=N)N)C(=O)N1CCC[C@H]1C(=O)N[C@@H](CCCCNC(CC(C)C)=C1C(=O)CC(C)(C)CC1=O)C(=O)N[C@@H](CC(C)C)C(=O)N[C@@H](CCCCNC(CC(C)C)=C1C(=O)CC(C)(C)CC1=O)C(=O)N[C@H](C(=O)N[C@H]1CSSC[C@@H]2NC(=O)[C@H]([C@@H](C)O)NC(=O)CNC(=O)CNC(=O)[C@H](C(C)C)NC(=O)[C@@H]3CSSC[C@@H](C(=O)N[C@@H](CO)C(=O)O)NC(=O)[C@H]([C@@H](C)O)NC(=O)[C@H](CSSC[C@H](NC(=O)[C@H](C(C)C)NC(=O)[C@@H]4CCCN4C(=O)[C@H](CC(C)C)NC(=O)CNC(=O)[C@H](CC(N)=O)NC(=O)[C@H](CCCNC(=N)N)NC(=O)[C@H]([C@@H](C)O)NC1=O)C(=O)NCC(=O)N[C@@H](CCC(N)=O)C(=O)N[C@@H]([C@@H](C)O)C(=O)N3)NC(=O)CNC(=O)[C@@H]1CCCN1C(=O)[C@H]([C@@H](C)O)NC(=O)[C@H](CC(N)=O)NC2=O)C(C)C |  |  | ring closure, yield over several steps ([1]; 120-membered ring): 7.1%
CC[C@H](NC(=O)[C@H](C)NC(=O)[C@H](CC(C)C)NC(=O)[C@@H]1CCCN1C(=O)[C@H](CCCCNC(CC(C)C)=C1C(=O)CC(C)(C)CC1=O)NC(=O)[C@@H](N)Cc1ccccc1)C(=O)N[C@H](C)C(=O)N[C@@H](CCCNC(=N)N)C(=O)N[C@H](C(=O)N[C@H]1CSSC[C@@H]2NC(=O)CNC(=O)[C@@H]3CCCN3C(=O)[C@H]([C@@H](C)O)NC(=O)[C@H](CC(N)=O)NC(=O)[C@@H]3CSSC[C@@H](C(=O)N[C@H](C(=O)O)[C@@H](C)O)NC(=O)[C@H](C(C)C)NC(=O)[C@@H]4CCCN4C(=O)[C@H](Cc4c[nH]c5ccccc45)NC(=O)[C@H](CO)NC(=O)[C@H](CSSC[C@H](NC(=O)[C@H]([C@@H](C)O)NC(=O)[C@H](CCC(N)=O)NC(=O)CNC1=O)C(=O)N[C@@H](C(C)C)C(=O)NCC(=O)NCC(=O)N[C@@H]([C@@H](C)O)C(=O)N3)NC(=O)[C@H]([C@@H](C)O)NC2=O)C(C)C |  |  | ring closure, yield over several steps ([1]; 96-membered ring): 1.1%
CC[C@H](NC(=O)[C@H](C)NC(=O)[C@H](CC(C)C)NC(=O)[C@@H]1CCCN1C(=O)[C@H](CCCCN)NC(=O)[C@@H](N)Cc1ccccc1)C(=O)N[C@H](C)C(=O)N[C@@H](CCCNC(=N)N)C(=O)O [BM221] (H-FKPLA[Abu][dA]R-OH) |  |  | EC50 (human C5aR1): 2.8 ± 0.9 nM
H-GCTCSWPVCTRNGLPVCGQTCVGGTCN-OH (6 free Cys) | 9.5 | 2.6 | 
H-GCYFQNCPRGVCGQTCVGGTCNTPGCTCSWPVCT-OH (epitope Cys2-Cys7 disulfide; scaffold I-IV, II-V, III-VI) |  |  | ring closure, yield over several steps ([1]; 102-membered ring): 1.7%
H-GCYIQNCPLGVCGQTCVGGTCNTPGCTCSWPVCT-OH (epitope Cys2-Cys7 disulfide; scaffold I-IV, II-V, III-VI) |  |  | ring closure, yield over several steps ([1]; 102-membered ring): 10.9%
H-RNGLPVCGETCVGGTCNTPGCTCSWPVCT-OH (disulfides I-IV, II-V, III-VI) |  |  | ring closure, yield over several steps ([1]; 87-membered ring): 10.6%
H-RNGLPVCGQTCVGGTCNTPGCTCSWPVCT-OH (disulfides I-IV, II-V, III-VI) |  |  | ring closure, yield over several steps ([1]; 87-membered ring): 24.8%
H-TCNTPGCTCSWPVCTRNGLPVCGQTCV-OH (6 free Cys) | 8.1 | 3.7 | 
H-VCGATCVGGTCNTPGCTCSWPVCT-OH (6 free Cys) | 4.6 | 3.8 | 
H-VCGETCVGGTCNTPGCTCSWPVCT-OH (6 free Cys) | 23.4 | 15.4 | 
H-VCGQTCVGGTCNTPGCTCSWPVCT-OH (6 free Cys) | 16.1 | 9.4 | 
H-VCTRNGLPVCGQTCVGGTCNTPGCTCS-OH (6 free Cys) | 30.5 | 27 | 
cyclo-(CGQTCVGGTCNTPGCTCSWPVCTRNGLPV) (6 free Cys) | 26.1 | 23.5 | 
